Reference: PMC7320145, “Substrate Channeling via a Transient Protein-Protein Complex: The case of D-Glyceraldehyde-3-Phosphate Dehydrogenase and L-Lactate Dehydrogenase” (Scientific Reports, 2020)

What was measured:
[1] = target: T1, rmGAPDH (rabbit muscle GAPDH) (Oryctolagus cuniculus, UniProt P46406); test: fluorescence titration, average of four read-outs (protein quenching, NADH quenching, FRET, anisotropy); details: in terms of NADH binding sites on each tetramer; average over sites (enzyme with negative cooperativity)
T1 construct: natural full-length enzyme from rabbit muscle, homotetramer; purified in-house by established protocols or purchased from Sigma; apo-enzyme
Excerpt: fluorescence titration, average of four read-outs (protein quenching, NADH quenching, FRET, anisotropy) on rmGAPDH (rabbit muscle GAPDH)

[2] = target: T2, byGAPDH (baker's yeast GAPDH); test: as above; set-up: species or system Saccharomyces cerevisiae; details: in terms of NADH binding sites on each tetramer
T2 construct: gene TDH3; purified in-house or purchased from Sigma; apo-enzyme
Excerpt: fluorescence titration, average of four read-outs (protein quenching, NADH quenching, FRET, anisotropy) on byGAPDH (baker's yeast GAPDH)

T1 sequence (P46406 whole entry): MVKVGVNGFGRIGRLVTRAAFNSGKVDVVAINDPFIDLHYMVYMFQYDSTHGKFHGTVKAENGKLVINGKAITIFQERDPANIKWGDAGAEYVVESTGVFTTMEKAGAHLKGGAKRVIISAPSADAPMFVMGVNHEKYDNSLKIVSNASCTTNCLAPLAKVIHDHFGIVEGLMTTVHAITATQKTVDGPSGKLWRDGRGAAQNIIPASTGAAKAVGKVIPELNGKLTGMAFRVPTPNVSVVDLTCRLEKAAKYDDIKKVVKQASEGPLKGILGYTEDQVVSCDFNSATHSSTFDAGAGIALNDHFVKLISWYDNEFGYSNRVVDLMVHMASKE

rmGAPDH-NADH KD fluorescence measurements [1]: 0.8 ± 0.06 micro Molar
byGAPDH-NADH KD fluorescence measurements [2]: 8.2 ± 0.5 micro Molar
SMILES: NC(=O)C1=CN([C@@H]2O[C@H](COP(=O)(O)OP(=O)(O)OC[C@H]3O[C@@H](n4cnc5c(N)ncnc54)[C@H](O)[C@@H]3O)[C@@H](O)[C@H]2O)C=CC1 [NADH]
